Data as given in patent publication US6191152A, “2-(1,2,4-triazole-1-yl)-1,3,4-thiadiazole derivatives having an effect on the C.N.S. and the heart” (EGIS Gyogyszergyar Rt., priority 1997, dated 2001).
Structures can show the parent of a compound that is named as a salt.

What was measured:
[1] = tested on: isolated rat thoracic aorta; assay: Vascular relaxing effect in potassium chloride (20 mM KCl) contracted isolated rat thoracic aorta; parameters: species or system rat (male SPRD); conditions: for IC50: Rattus norvegicus, 20 mM KCl contracted strips, 37° C., read-out: IC50 (vascular relaxation in isolated rat thoracic aorta)
Experimental: 1. Measurement of Vascular Relaxing Effect in Potassium Chloride Contracted Isolated rat Thoracic Aorta
Experiments were performed in thoracic aortas obtained from male SPRD rats weighing 250 to 300 g. Thoracic aortas excised from rats killed by decapitation and ensanguination were cleaned of fat and connective tissue, then were immediately placed in carbogenized TYRODE solution. The composition of the normal TYRODE solution was the following (in mM): NaCl 114.7, KCl 3.7, CaCl2 3.6, MgCl2 0.49, NaHCO3 19.9, NaH2 PO4 0.32, glucose 5.1.
Two mm wide and 20 to 25 mm long strips were cut from the aortas along a helical line at 45° angle. Aortic strips were mounted vertically between two cotton threads in 10 ml organ chambers, the lower threads were attached to the organ chambers and the upper threads were connected to isometric force transducers. The strips were incubated under 1 g resting tension at 37° C. for 120 minutes, then resting vascular tone was recorded. Then the strips were contracted with a TYRODE solution containing 20 mM KCl. The composition of the high potassium TYRODE solution was the following (in mM): NaCl 94.7, KCl 20, CaCl2 3.6, MgCl2 0.49, NaHCO3 19.9, NaH2 PO4 0.32, glucose 5.1.
When stable vascular tone developed, increasing doses of the test substance were added to the organ bath. The effects of each test substance were measured at least in 3 tissue preparations obtained from different animals. Decreases in vascular tension caused by the test substances were expressed as percentage changes and IC50 for each tissue preparation was determined by sigmoid (in few casses linear) curve fitting.
For comparison, cromakalim i.e. (±)-trans-3,4-dihydro-3-hydroxy-2,2-dimethyl-4-(2-oxo-1-pyrrolidinyl)-2H-1-benzopyrane-6-carbonitrile was used.

[2] = tested on: isolated guinea-pig papillary muscle; assay: Effective refractory period (ERP) prolonging effect in isolated guinea-pig right ventricular papillary muscle, in vitro; parameters: species or system guinea-pig (male); conditions: for ERP change at 10^-4 M / ERP change at 10^-5 M: 30 minutes incubation, mean of at least four preparations
Source text: 2. Measurement of Effective Refracter Period in Guinea-pig Right Ventricular Papillary Muscle, in Vitro.
Effective refracter period (ERP) is regarded to be the shortest time interval between two identical electrical stimuli when both can evoke a twitch in the papillary muscle. A second stimulus applied earlier than the ERP is not effective. Compounds prolonging ERP can have antiarrhythmic effect. This method is useful primarily for testing antiarrhythmic agents belonging to class III according to the Vaughan Williams classification /Bexton, R. S. and Camm. A., J. Pharmacol. Ther., 17, 315 (1982)/.
Experiments were performed in a Schuler-type organ bath system having 4 channels. Male guinea-pigs weighing 450 to 750 g were killed by a blow on the head and ensanguinated. The heart was rapidly excised and papillary muscles of appropriate size (lower than 1 mm in diameter) were dissected from the right ventricle. The preparations were vertically mounted in 20 ml organ chambers containing Krebs solution bubbled with carbogen (consisting of 95% of O2 and 5% of CO2) and maintained at 35° C. The upper end of the muscles was connected with cotton threads to force-displacement transducers coupled to a recorder for measuring isometric tension via DC-bridge amplifiers. The lower end of the papillary muscles was pinned to the organ chamber with a silver hook that was also used as a stimulating electrode. The other electrode was immersed into the organ bath and had no direct contact with the preparation. The composition of the Krebs solution was the following (in mm): NaCl 118, KCl 4.8, NaHCO3 27.2, glucose 11.1, MgSO4 1.2, KH2 PO4 1, CaCl2 2.6, pH=7.4.
The preparations were equilibrated for 120 minutes under a resting tension of 1 g. During equilibration they were electrically stimulated at a rate of 2 Hz with 1 msec rectangular pulses that were above the diastolic threshold voltage by 10%. ERP was determined using a standard extrastimulus technique. Extrastimuli (S2) were interjected between the normal stimuli (S1) in such a way that the S1 -S2 interval was initially below the refracter period of the tissue. The S1 -S2 interval was then widened by increments of 1 msec until the extrastimulus (S2) evoked twitch of the papillary muscle. The force of the twitch caused by S2 is larger than those caused by normal (S1) stimuli (postextrasystolic potentiation). The equipment measured the shortest S1 -S2 interval at which the extrastimulus evoked a twitch that was larger than the force of control twitches by 25%. This interval is equivalent with the ERP.
The experimental protocol was as follows:
Two control ERP measurements were performed 20 minutes apart, then appropriate amount of the test substance was added to produce 10^-4 M concentration in the bathing solution. After 30 minutes incubation with the test substance, two ERP measurements were performed 30 minutes apart.
When the test substance increased ERP at 10^-4 M by 40 msec or more, its effect on ERP was tested also at 10^-5 M.
The effect of the test substances was characterized by the difference between the first treated and the second control measurements. Individual data obtained from four different preparations, at least, were averaged. The reference substance used was sotalol i.e. N-[4-/1-hydroxy-2-(1-methylethylamino)ethyl/plenyl]methane sulfonamide.

[3] = tested on: isolated Langendorff rat hearts; assay: Cardioprotective effect (time to contracture, TTC) in globally ischemic isolated Langendorff rat hearts; parameters: species or system rat (male Wistar); conditions: for TTC change vs vehicle (%) at 10 µM / TTC change vs vehicle (%) at 1 µM: Rattus norvegicus, compared to the vehicle treated group; for TTC change vs vehicle (%) at 10 µM: 10^-5 M; for TTC change vs vehicle (%) at 1 µM: 10^-6 M
Source text: 3. Measurement of Cardioprotective Effect in Ischemic rat Heart (Langendorff) Preparation
If the blood supply to a part of the myocardium is interrupted (e.g. during myocardial infarction), then the intracellular calcium concentration starts to rise and gradually attains pathophysiological levels. Myocardial contraction is regulated by calcium, therefore, high intracellular calcium concentration results in contracture of the myocardium. In isolated rat hearts, contracture develops in about 10 minutes after starting global ischemia, and this period is called time to contracture (TTC). Any substance which can inhibit the rise of intracellular calcium concentration and the development of contracture caused by high calcium concentration during ischemia protects the myocardium from impairment i.e. it has cardioprotective effect. Under experimental conditions,the cardioprotective effect of drugs is shown by their ability to prolong TTC. The cardioprotective effect of the compounds of the invention was examined by measuring TTC in globally ischemic Langendorff rat hearts/Longman, S. D. and Hamilton, T. C., Medicinal Research Reviews, 12, 73-148 (1992)/.
Male Wistar rats weighing 300 to 350 g were injected with 2500 IU (0.5 ml) of heparin i.p. and 10 minutes later they were anaesthetized with sodium pentobarbital/5-ethyl-5-(1-methylbutyl)-2,4,6(1H,3H,5H)-pyrimidinetrione sodium salt/in a dose of 60 mg/kg i.p. The heart was quickly excised and connected to a Langendorff apparatus via the aorta. The hearts were perfused at a constant perfusion pressure (60 mmHg) and temperature (37° C.) with a modified Krebs-Henseleit solution gassed with 95% of O2 and 5% of CO2. The composition of the modified Krebs-Henseleit solution was the following (in mM): NaCl 118, KCl 4.7, CaCl2 2.5, NaHCO3 24.88, KH2 PO4 1.18, MgSO4 1.6, EDTA 0.5 and glucose 11. Partial O2 and CO2 pressures and also pH were measured and maintained within normal limits (pO2 ==64000-77000 Pa, pCO2 =3800-4500 Pa, pH=7.3-7.45). A hole was cut in the wall of the left atrium and a water-filled plastic balloon attached to a metal cannula was then inserted into the left ventricle via the left atrium for measuring left ventricular pressure. End diastolic pressure was set to about 645 Pa, and adjusted for during the equilibration period but not later.
After a 20 minutes equilibration period, the hearts were perfused for 10 minutes with the test substance at 10^-5 or 10^-6 concentration or with the vehicle (0.04% of dimethyl sulfoxide). Global ischemia was initiated by completely shutting off the perfusate flow and carbogenization for 25 minutes. During ischemia, the time period from the beginning of ischemia until 645 Pa increase in left ventricular end diastolic pressure was measured (TTC).
Three experiments were performed with the test substances at each concentration and parameters of 3 additional vehicle treated hearts were measured along with the test substance.
Individual TTC values were averaged and the effect of the test substances was expressed as a percentage change compared to the vehicle treated group. Compounds that prolong TTC are cardioprotective. As a reference substance, lemakalim i.e. (3S)-trans-3,4-dihydro-3-hydroxy-2,2-dimethyl-4-(2-oxo-1-pyrrolidinyl)-2H- 1-benzpyrane-6-carbonitrile was used.

What does the source list for `CN1CCN(c2nc(N)n(-c3nnc(-c4c(Cl)cccc4Cl)s3)n2)CC1` [Example 10, 2-/5-Amino-3-(4-methylpiperazino)-1H-1,2,4-triazole-1-yl/ -5-(2,6-dichlorophenyl)-1,3,4-thiadiazole hydrochloride monohydrate]?
IC50 [1]: > 10 µM; ERP change at 10^-4 M [2]: 120 msec; ERP change at 10^-5 M [2]: 32 msec; TTC change vs vehicle (%) at 10 µM [3]: 74%; TTC change vs vehicle (%) at 1 µM [3]: 47%

`CSc1nc(N)n(-c2nnc(-c3cccc(OCCCN(C)C)c3)s2)n1` [Example 26, 2-(5-Amino-3-methylthio-1H-1,2,4-triazole-1-yl)-5-/ 3-(3-dimethylaminopropoxy)phenyl/-1,3,4-thiadiazole hydrochloride] was tested. Which IC50 [1] did it give?
Its IC50 is over 10 µM.

And the “ERP prolongation (in words)” value [2]?
Its value is “prolonged not only TTC but ERP as well”.

And the “ERP change at 10^-4 M” value [2]?
The value was 148 msec.

What about the “ERP change at 10^-5 M” value [2] of the same compound?
The value was 21 msec.

And the “TTC prolongation (in words)” value [3]?
Its value is “prolonged not only TTC but ERP as well”.

And the TTC change vs vehicle (%) at 10 µM [3]?
Its TTC change vs vehicle (%) at 10 µM is 41%.

And the TTC change vs vehicle (%) at 1 µM [3]?
Its TTC change vs vehicle (%) at 1 µM is 33%.

For `CSc1nc(N)n(-c2nnc(-c3ccccc3OCCCN(C(C)C)C(C)C)s2)n1` [Example 45, 2-(5-Amino-3-methylthio-1H-1,2,4-triazole-1-yl)-5-[2-/ 3-di(2-methylethyl)aminopropoxy/phenyl]-1,3,4-thiadiazole], which IC50 [1] is on record?
Its IC50 is over 1 µM.

And the TTC change vs vehicle (%) at 10 µM [3]?
Its TTC change vs vehicle (%) at 10 µM is 31%.

And the TTC change vs vehicle (%) at 1 µM [3]?
The TTC change vs vehicle (%) at 1 µM was 30%.

How did the IC50 [1] turn out when `CCN(CCO)CCOc1ccccc1-c1nnc(-n2nc(N3CCCCC3)nc2N)s1` [Example 90, 2-(5-Amino-3-piperidino-1H-1,2,4-triazole-1-yl)-5-{2-[2-/ 2-ethyl-2-(2-hydroxyethyl)amino/ethoxy]phenyl}-1,3,4-thiadiazole] was run?
Its IC50 is over 10 µM.

And the TTC change vs vehicle (%) at 10 µM [3]?
Its TTC change vs vehicle (%) at 10 µM is 36%.

And the TTC change vs vehicle (%) at 1 µM [3]?
The TTC change vs vehicle (%) at 1 µM was 19%.

Which results are given for `Nc1nc(N2CCCCC2)nn1-c1nnc(-c2ccccc2OCCNCCN2CCOCC2)s1` [Example 91, 2-(5-Amino-3-piperidino-1H-1,2,4-triazole-1-yl)-5-[2-/ 2-(2-morpholinoethyl)amino/ethoxy]phenyl-1,3,4-thiadiazole]?
IC50 [1]: > 1 µM; TTC change vs vehicle (%) at 1 µM [3]: 58%

For `CC1(C)Oc2ccc(C#N)cc2[C@@H](N2CCCC2=O)[C@@H]1O` [lemakalim, (3S)-trans-3,4-dihydro-3-hydroxy-2,2-dimethyl-4-(2-oxo-1-pyrrolidinyl)-2H-1-benzpyrane-6-carbonitrile, reference compound], which “vascular relaxation of isolated rat thoracic aorta (in words)” value [1] is on record?
Its value is “considerably relaxed isolated rat thoracic aorta”.

And the “TTC prolongation (in words)” value [3]?
The value was “prolonged not only TTC”.

What about the TTC change vs vehicle (%) at 10 µM [3] of the same compound?
Its TTC change vs vehicle (%) at 10 µM is 55%.

And the TTC change vs vehicle (%) at 1 µM [3]?
Its TTC change vs vehicle (%) at 1 µM is 20%.
